Data on 44 compounds can be found in patent US11807606B2, “Sulfonamide derivatives for protein degradation” (DANA-FARBER CANCER INSTITUTE, INC., priority 2018, dated 2023).

Chain of DCAF15 and RRM2 domain in RBM39 (Q66K64 whole entry, the tested form may be a part): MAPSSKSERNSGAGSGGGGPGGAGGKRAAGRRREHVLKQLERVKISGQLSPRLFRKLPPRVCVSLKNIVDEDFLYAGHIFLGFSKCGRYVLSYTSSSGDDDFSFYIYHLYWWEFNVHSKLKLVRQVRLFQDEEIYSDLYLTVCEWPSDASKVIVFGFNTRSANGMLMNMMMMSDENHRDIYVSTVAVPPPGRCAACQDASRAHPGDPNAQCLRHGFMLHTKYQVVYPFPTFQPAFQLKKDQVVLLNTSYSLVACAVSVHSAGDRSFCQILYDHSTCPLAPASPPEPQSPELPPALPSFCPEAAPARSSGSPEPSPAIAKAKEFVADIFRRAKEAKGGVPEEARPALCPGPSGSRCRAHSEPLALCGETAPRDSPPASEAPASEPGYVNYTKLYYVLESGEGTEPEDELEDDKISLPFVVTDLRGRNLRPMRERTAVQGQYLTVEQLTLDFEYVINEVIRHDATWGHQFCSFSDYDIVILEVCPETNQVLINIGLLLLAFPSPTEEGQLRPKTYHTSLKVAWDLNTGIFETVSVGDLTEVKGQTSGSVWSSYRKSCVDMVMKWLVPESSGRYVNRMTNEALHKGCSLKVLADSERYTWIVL
Chain of DCAF15 and RRM2 domain in RBM39 (Q14498 250-328): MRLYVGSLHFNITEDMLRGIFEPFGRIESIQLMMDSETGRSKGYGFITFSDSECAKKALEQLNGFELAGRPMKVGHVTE
Chain of DCAF15 and RRM2 domain in RBM39 (Q16531 whole entry partner, the tested form may be a part): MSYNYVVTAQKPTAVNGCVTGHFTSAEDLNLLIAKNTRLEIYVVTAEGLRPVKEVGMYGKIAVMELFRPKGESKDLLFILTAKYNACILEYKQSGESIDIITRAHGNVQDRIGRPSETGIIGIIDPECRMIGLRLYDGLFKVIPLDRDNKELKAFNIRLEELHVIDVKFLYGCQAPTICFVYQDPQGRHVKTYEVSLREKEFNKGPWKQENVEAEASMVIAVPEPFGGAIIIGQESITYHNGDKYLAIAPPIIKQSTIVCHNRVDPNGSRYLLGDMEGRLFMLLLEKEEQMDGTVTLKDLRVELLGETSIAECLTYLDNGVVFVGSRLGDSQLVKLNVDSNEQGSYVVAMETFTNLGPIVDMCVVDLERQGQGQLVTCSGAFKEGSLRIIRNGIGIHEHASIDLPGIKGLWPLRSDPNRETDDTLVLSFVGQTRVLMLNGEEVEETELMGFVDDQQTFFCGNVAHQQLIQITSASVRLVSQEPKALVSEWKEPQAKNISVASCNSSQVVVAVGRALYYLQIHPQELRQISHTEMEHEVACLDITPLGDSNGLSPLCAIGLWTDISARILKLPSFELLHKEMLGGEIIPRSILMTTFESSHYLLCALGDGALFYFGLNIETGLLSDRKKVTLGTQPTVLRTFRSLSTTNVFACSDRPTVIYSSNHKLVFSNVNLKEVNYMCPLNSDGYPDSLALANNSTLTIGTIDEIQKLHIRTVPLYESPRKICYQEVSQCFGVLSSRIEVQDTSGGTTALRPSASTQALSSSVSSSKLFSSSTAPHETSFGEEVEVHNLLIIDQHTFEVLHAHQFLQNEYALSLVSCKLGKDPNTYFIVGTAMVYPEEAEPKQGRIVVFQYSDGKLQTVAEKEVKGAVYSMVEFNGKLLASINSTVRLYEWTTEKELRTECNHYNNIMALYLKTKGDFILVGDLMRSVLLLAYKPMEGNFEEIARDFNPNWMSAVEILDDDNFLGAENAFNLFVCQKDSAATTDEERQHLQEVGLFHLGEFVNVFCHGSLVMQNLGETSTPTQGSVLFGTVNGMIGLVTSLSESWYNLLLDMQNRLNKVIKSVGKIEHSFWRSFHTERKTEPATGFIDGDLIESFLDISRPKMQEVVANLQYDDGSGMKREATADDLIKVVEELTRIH

The target in the assay is DCAF15 and RRM2 domain in RBM39 (Homo sapiens (Human), UniProt Q14498+Q66K64). Nature of the assay: TR-FRET biochemical assay, DCAF15 activity (recruitment of RBM39 RRM2 domain to DCAF15). It counts as binding. Conditions: TR-FRET 520/490 nm ratio; biotinylated DCAF15 200 nM, Bodipy-FL RBM39 RRM2 200 nM, Tb-streptavidin 2 nM. The procedure:
Increasing concentrations of compounds were added to pre-mixed biotinylated DCAF15 at 200 nM, Bodipy-FL-labelled RRM2 domain in RBM39 at 200 nM, and terbium (Tb)-coupled streptavidin at 2 nM (Invitrogen) in 384-well microplates in a buffer containing 50 mM Tris pH 7.5, 100 mM NaCl, 0.1% pluronic acid and 2% DMSO. Before TR-FRET measurements were conducted, the reactions were incubated for 15 min at room temperature. After excitation of terbium (Tb) fluorescence at 337 nm, emission at 490 nm (Tb) and 520 nm (Bodipy-FL) were recorded with a 70 μs delay to reduce background fluorescence and the reaction was followed over 1 h by recording 60 technical replicates of each data point using a PHERAstar FS microplate reader (BMG Labtech). The TR-FRET signal of each data point was extracted by calculating the 520/490 nm ratio. Data were analyzed with GraphPad Prism 7.
For orientation: Time-resolved FRET reads energy transfer from a long-lived donor to a nearby acceptor.
With `Cc1cccc(S(=O)(=O)Nc2ccc(C)c3c(C#N)c[nH]c23)c1`, the 50% effective concentration (EC50) – broadly, the midpoint of the concentration-response curve – lay within 1 to 10 µM.

Regarding `Cc1ccc(NS(=O)(=O)c2cccc(C(F)(F)F)c2)c2[nH]cc(C#N)c12`, the EC50 lay within 1 to 10 µM.

Regarding `Cc1ccc(NS(=O)(=O)c2cccc([N+](=O)[O-])c2)c2[nH]cc(C#N)c12`, the EC50 lay within 1 to 10 µM.

For the compound `Cc1ccc(NS(=O)(=O)c2cccc(N)c2)c2[nH]cc(C#N)c12`, the EC50 fell in the range of 1 to 10 µM.

Turning to `CNC(=O)c1cccc(S(=O)(=O)Nc2ccc(C)c3c(C#N)c[nH]c23)c1`, the concentration for a half-maximal effect (EC50) lay in the range of 1 to 10 µM.

Consider `COC(=O)c1cccc(S(=O)(=O)Nc2ccc(C)c3c(C#N)c[nH]c23)c1`, for which the EC50 was 1 to 10 µM.

On to `Cc1ccc(NS(=O)(=O)c2ccc(C#N)cc2)c2[nH]cc(C#N)c12`, for which the half-maximal effective concentration (EC50) lay in the range of 1 to 10 µM.

In the case of `Cc1ccc(NS(=O)(=O)c2ccccc2[N+](=O)[O-])c2[nH]cc(C#N)c12`, the 50% effective concentration (EC50) is over 10 µM.

`Cc1ccc(NS(=O)(=O)c2ccc(F)cc2F)c2[nH]cc(C#N)c12`: the concentration for a half-maximal effect (EC50) was in the range of 1 to 10 µM.

On to `COC(=O)c1ccc(S(=O)(=O)Nc2ccc(C)c3c(C#N)c[nH]c23)cc1`, for which the concentration for a half-maximal effect (EC50) is 1 to 10 µM.

On to `Cc1ccc(NS(=O)(=O)c2ccc([N+](=O)[O-])cc2)c2[nH]cc(C#N)c12`, for which the concentration for a half-maximal effect (EC50) fell in the range of 1 to 10 µM.

Turning to `Cc1ccc(NS(=O)(=O)c2cccc(C#N)c2)c2[nH]cc(C=O)c12`, the EC50 lay within 1 to 10 µM.

Take `Cc1ccc(NS(=O)(=O)c2cccc(C#N)c2)c2[nH]ccc12`: the EC50 was over 10 µM.

For `CNC(=O)c1c[nH]c2c(NS(=O)(=O)c3cccc(C#N)c3)ccc(C)c12`, the EC50 was over 10 µM.

For `N#Cc1cccc(S(=O)(=O)Nc2ccc(-c3ccccc3)c3c(C#N)c[nH]c23)c1`, the EC50 was over 10 µM.

With `O=S(=O)(Nc1ncnc2[nH]ccc12)c1ccccc1`, the EC50 was over 10 µM.

Consider `Cc1ccc(NS(=O)(=O)c2ccccc2OC(F)(F)F)c2[nH]cc(C#N)c12`, for which the EC50 is over 10 µM.

In the case of `Cc1ccccc1S(=O)(=O)Nc1ccc(C)c2c(C#N)c[nH]c12`, the EC50 is over 10 µM.

`Cc1ccc(NS(=O)(=O)c2ccccc2C(F)(F)F)c2[nH]cc(C#N)c12`: the EC50 was over 10 µM.

As for `Cc1ccc(NS(=O)(=O)c2ccccc2Br)c2[nH]cc(C#N)c12`, the EC50 was over 10 µM.

Consider `Cc1ccc(NS(=O)(=O)c2ccccc2)c2[nH]cc(C#N)c12`, for which the EC50 lay within 1 to 10 µM.

As to `Cc1ccc(NS(C)(=O)=O)c2[nH]cc(C#N)c12`, the EC50 was over 10 µM.

With `CC(=O)Nc1ccc(C)c2c(C#N)c[nH]c12`, the EC50 was over 10 µM.

Take `N#Cc1cccc(S(=O)(=O)Nc2cc(Cl)cc3cc[nH]c23)c1`: the EC50 was over 10 µM.

Turning to `N#Cc1cccc(S(=O)(=O)Nc2cc(F)cc3c2NC(=O)C3)c1`, the EC50 is over 10 µM.

As to `Cc1ccc(NC(=O)c2cccc(C#N)c2)c2[nH]cc(C#N)c12`, the EC50 is over 10 µM.

`Cc1ccc(NS(=O)(=O)c2cccc(C#N)c2)c2[nH]cc(Cl)c12`: the half-maximal effective concentration (EC50) lay within 1 to 10 µM.

With `Cc1ccc(NS(=O)(=O)c2cccc(C#N)c2)c2[nH]cc(Br)c12`, the EC50 was in the range of 1 to 10 µM.

As to `N#Cc1cccc(S(=O)(=O)Nc2cc(Cl)cc3c(Br)c[nH]c23)c1`, the EC50 was over 10 µM.

As for `N#Cc1cccc(S(=O)(=O)Nc2ccc3c(C#N)c[nH]c3c2)c1`, the EC50 was over 10 µM.

As for `N#Cc1cccc(S(=O)(=O)Nc2cccc3c(C#N)c[nH]c23)c1`, the concentration giving a half-maximal response (EC50) is over 10 µM.

In the case of `CCOC(=O)c1cc2cc(NS(=O)(=O)c3cccc(C#N)c3)ccc2[nH]1`, the EC50 is over 10 µM.

Regarding `N#Cc1cccc(S(=O)(=O)Nc2ncnc3[nH]ccc23)c1`, the EC50 is over 10 µM.

As to `N#Cc1cccc(S(=O)(=O)Nc2ncnc3[nH]cc(Cl)c23)c1`, the EC50 was over 10 µM.

Turning to `N#Cc1cccc(S(=O)(=O)Nc2cccn3ncnc23)c1`, the EC50 was over 10 µM.

With `N#Cc1cccc(S(=O)(=O)Nc2cc(-c3ccccc3)cc3c(C#N)c[nH]c23)c1`, the EC50 was over 10 µM.

On to `N#Cc1cccc(S(=O)(=O)Nc2cc(-c3ccccc3)cc3cc[nH]c23)c1`, for which the EC50 is over 10 µM.

As for `COCCNc1ccc(S(=O)(=O)Nc2ccc(C)c3c(C#N)c[nH]c23)cc1C#N`, the EC50 lay within 1 to 10 µM.

Regarding `N#Cc1cccc(S(=O)(=O)Nc2ccc(-c3ccccc3)c3cc[nH]c23)c1`, the EC50 was over 10 µM.

Regarding `N#Cc1cccc(S(=O)(=O)Nc2cccc3c2CNC3=O)c1`, the concentration for a half-maximal effect (EC50) was over 10 µM.

In the case of `CCOC(=O)c1cc2c(C)ccc(NS(=O)(=O)c3cccc(C#N)c3)c2[nH]1`, the EC50 is over 10 µM.

Turning to `N#Cc1cccc(S(=O)(=O)Nc2cccc(C(N)=O)c2N)c1`, the EC50 was over 10 µM.

Regarding `N#Cc1cccc(S(=O)(=O)Nc2ccc3[nH]cc(C#N)c3c2)c1`, the EC50 was over 10 µM.

On to `N#Cc1cccc(S(=O)(=O)Nc2cccc3c(Cl)n[nH]c23)c1`, for which the EC50 was over 10 µM.
